Each structure is given as a SMILES string. The source made the active and inactive calls.

Data set [1] has as its target T1, Amino acid transporter (Rattus norvegicus) (UniProt Q9Z1J7).
T1 sequence (whole entry): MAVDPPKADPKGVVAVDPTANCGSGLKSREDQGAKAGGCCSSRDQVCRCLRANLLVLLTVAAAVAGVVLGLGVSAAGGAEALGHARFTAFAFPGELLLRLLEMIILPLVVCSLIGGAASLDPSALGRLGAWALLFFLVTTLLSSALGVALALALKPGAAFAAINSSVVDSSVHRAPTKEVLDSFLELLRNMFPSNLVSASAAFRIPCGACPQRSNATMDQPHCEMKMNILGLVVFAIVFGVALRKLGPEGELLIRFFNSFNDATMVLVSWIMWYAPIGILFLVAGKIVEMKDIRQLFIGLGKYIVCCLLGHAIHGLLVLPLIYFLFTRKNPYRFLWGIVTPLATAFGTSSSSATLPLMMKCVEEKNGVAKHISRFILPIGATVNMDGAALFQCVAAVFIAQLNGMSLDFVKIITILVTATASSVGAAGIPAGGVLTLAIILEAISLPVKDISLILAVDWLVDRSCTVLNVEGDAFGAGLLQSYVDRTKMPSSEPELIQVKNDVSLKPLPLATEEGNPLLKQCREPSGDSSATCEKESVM
The experiment in a line: Inhibition of ASCT2 in rat hippocampal astrocytes assessed as reduction in [3H]-D-serine uptake in presence of L-glutamine after 5 mins by beta counting analysis. The format is cell-based.

In data set [2] the target is T2, Glutamate NMDA receptor (Rattus norvegicus) (UniProt P35439+Q00959+Q00960+Q00961+Q62645+Q8VHN2+Q9R1M7). The experiment in a line: Potentiation of NMDA receptor mediated excitatory post-synaptic currents in the CA1 region of rat hippocampal slices upto 1 hr by whole-cell patch-clamp assay. Background: Patch clamp records ionic current or voltage across a cell membrane.

The target of data set [3] is T1, Amino acid transporter (Rattus norvegicus). The experiment in a line: Inhibition of ASCT2 mediated [3H]-D-serine uptake in rat hippocampal astrocytes at 1 mM after 5 mins by beta counting analysis. The format is cell-based.
For data set [4], the species on record is Rattus norvegicus. The experiment in a line: Inhibition of D-serine transporter in Sprague-Dawley rat visual cortex assessed as LTP threshold after 15 mins.
Data set [5] concerns the target T2, Glutamate NMDA receptor (Rattus norvegicus). The experiment in a line: Potentiation of NMDA receptor mediated excitatory post-synaptic currents in the CA1 region of rat hippocampal slices after 1 hr by electrophysiological assay.
For data set [6] the target is unchanged. The experiment in a line: Activation of NMDA receptor in rat visual cortex assessed as increase in theta burst stimulation of LTP after 15 mins followed by LTP induction by electrophysiological assay.
For data set [7], the system named is Rattus norvegicus. The experiment in a line: Antipsychotic activity in rat model of schizophrenia assessed as […] in prepulse inhibition at 15 mg/kg. It counts as functional, organism-based.
Data set [8] deals with T2, Glutamate NMDA receptor (Rattus norvegicus). The experiment in a line: Activation of NMDA receptor in rat visual cortex assessed as increase in theta burst stimulation of LTP after 15 mins followed by LTP induction in presence of DAAO by electrophysiological assay.
The subject of data set [9] is Rattus norvegicus. The experiment in a line: Effect on absolute startle response in rat model of schizophrenia at 15 mg/kg. The conditions noted are these: in vivo. The format is ADME, organism-based.
Data set [10] deals with Rattus norvegicus. The experiment in a line: Antipsychotic activity in rat model of schizophrenia assessed as […] in prepulse inhibition at 600 mg/kg. The format is functional, organism-based.
In data set [11] the test system is Rattus norvegicus. The experiment in a line: Effect on absolute startle response in rat model of schizophrenia at 600 mg/kg. The format is ADME, organism-based. To be noted: in vivo.
Data set [12] has as its system Mus musculus. The experiment in a line: Reduction in amphetamine-induced hyperactivity in systemically dosed C57B/6 mouse model of schizophrenia administered at 30 mins after habituation in open field apparatus followed by amphetamine injection measured for 1 hr post dose. The format is functional, organism-based.
Data set [13] relates to Mus musculus. The experiment in a line: Reduction in amphetamine-induced hyperactivity in C57B/6 mouse model of schizophrenia at 0.3 mg/kg, ip administered at 30 mins after habituation in open field apparatus followed by amphetamine injection measured for 1 hr post dose. The format is functional, organism-based.
For data set [14], the system named is Mus musculus. The experiment in a line: Reduction in amphetamine-induced hyperactivity in C57B/6 mouse model of schizophrenia at 1 mg/kg administered at 30 mins after habituation in open field apparatus followed by amphetamine injection measured for 1 hr post dose. It counts as functional, organism-based.
Data set [15] is filed under the species Rattus norvegicus. The experiment in a line: Inhibition of D-serine transporter in rat hippocampal slices assessed as increase in LTP at 100 uM.
Data set [16] concerns the target T1, Amino acid transporter (Rattus norvegicus). The experiment in a line: Inhibition of ASCT2 in rat hippocampal astrocytes assessed as reduction in [3H]-D-serine uptake in presence of L-t-40HPro after 5 mins by beta counting analysis. The format is cell-based.

As to `O=C(O)[C@@H]1C[C@@H](O)CN1`, the inhibition entry in data set [1] is “Active”. Moreover, in data set [2], the result was inactive. This compound also displayed an inhibition in data set [3] of over 25%. The Activity in the data set filed under Rattus norvegicus [4] was found to be 3 µM. As to `N[C@@H](CSCc1ccccc1)C(=O)O`, the result in data set [2] was inactive. This compound also gave an inhibition in [3] of over 25%.

Consider `N[C@@H](CCC(=O)OCc1ccccc1)C(=O)O`, for which, in data set [2], the outcome was inactive.

Regarding `N[C@@H](CO)C(=O)O`, the result in [2] was inactive. Also, in data set [3], the inhibition was over 25%. Consider `N[C@H](C(=O)O)c1ccc(O)cc1` [OXFENICINE], for which the result in [5] and in data set [8] was inactive. The Activity entry is “Dose-dependent effect” in data set [6], “Dose-dependent effect” in data set [2], “Non-Toxic” in the data set with Rattus norvegicus [9] and 10 µM in the data set filed under Rattus norvegicus [4]. In the data set with Rattus norvegicus [7], the result was Active. In [3], this compound showed an inhibition of over 25%. Take `O=C(O)[C@@H]1CCCN1`: the outcome in [2] was inactive. Besides, in data set [3], the inhibition was over 25%. For the compound `N[C@H](C(=O)O)c1ccccc1`, the outcome in [2] was inactive. The inhibition in [3] is over 25%. The Activity in the data set filed under Rattus norvegicus [4] came to 10 µM.

`NC(C(=O)O)c1ccccc1F` (stereo unspecified): in data set [2], the result was inactive. In addition, in data set [3], the inhibition is over 25%. Further, the Activity in the data set filed under Rattus norvegicus [4] is over 300 µM. For `N[C@H](CO)C(=O)O` [(D)-SERINE], the outcome (with Rattus norvegicus [10]; in [2]) was inactive. Also, the Activity result is “Non-Toxic” in the data set on Rattus norvegicus [11] and 3 µM in the data set listed under Rattus norvegicus [4]. The compound further showed an inhibition in [3] of over 25%. Consider `NC(C(=O)O)c1cccc([N+](=O)[O-])c1` (stereo unspecified), for which the inhibition in [3] was over 25%.

Consider `NC(C(=O)O)c1ccc([N+](=O)[O-])cc1` (stereo unspecified), for which the inhibition in data set [3] was over 25%. Same read-out and setting: under `O=C(O)[C@@H]1C[C@@H](c2ccccc2)CN1` stands over 25%; under `N[C@@H](CC1CC1)C(=O)O`, over 25%. In the case of `NC(=O)C[C@H](N)C(=O)O`, in [2], the result was inactive. Besides, the inhibition in [3] is over 25%. Further, the Activity in the data set filed under Rattus norvegicus [4] was 3 µM.

In [3], `NCC(=O)O` yielded an inhibition of over 25%. Take `O=C(O)[C@H](CO)NCc1ccccc1`: the inhibition in data set [3] is over 25%.

The compound `NC(C(=O)O)c1ccccc1O` (stereo unspecified) yielded an inhibition in [3] of over 25%. Compound `N[C@@H](CCC(=O)NO)C(=O)O` had an inhibition in [3] of over 25%. On the same count and under the same terms, under `N[C@@H](CCC(=O)Nc1cccc2ccccc12)C(=O)O` stands over 25%. Still for that read-out and setting: under `C=CC[C@H]1CNC(C(=O)O)C1` (single isomer, unassigned) stands over 25%. Take `O=C(O)C1C[C@@H](Cc2ccc(F)c(F)c2)CN1` (single isomer, unassigned): the inhibition in data set [3] is over 25%. On the same count and under the same terms, under `NC(C(=O)O)c1ccc(F)c(Cl)c1` (stereo unspecified) stands over 25%; under `C[C@H](O)[C@H](N)C(=O)O`, over 25%; under `O=C(O)[C@@H]1C[C@@H](Cc2ccco2)CN1`, over 25%. On the same count and under the same terms, the value for `N[C@@H](Cc1c[nH]c2ccc(F)cc12)C(=O)O` was over 25%; that for `Cc1ccc(SC[C@H](N)C(=O)O)cc1` was over 25%.

Consider `N[C@H](C(=O)O)C1CC1`, for which the inhibition in data set [3] is over 25%. For the same compound, the Activity in the data set listed under Rattus norvegicus [4] was determined as 1 µM. In turn, `NC(=O)C[C@@H](N)C(=O)O` returned an inhibition in [3] of over 25%.

`O=C(O)C1C[C@@H](Cc2ccccc2Cl)CN1` (single isomer, unassigned) had an inhibition in data set [3] of over 25%. The same measure, in the same setting: the value for `COC[C@H](N)C(=O)O` was over 25%. Consider `N[C@H](C(=O)O)c1ccc(F)cc1`, for which the Activity result is “Dose-dependent effect” in the data set with Mus musculus [12] and 0.3 µM in the data set listed under Rattus norvegicus [4]. Further, the result in the data set on Mus musculus [13] was Active. The result in [2] was inactive. For the same compound, the inhibition in data set [3] was over 25%. On to `O=C(O)C1C[C@@H](Cc2cccc3ccccc23)CN1` (single isomer, unassigned), for which the inhibition in data set [3] was over 25%. Still for that read-out and setting: under `CNC[C@H](N)C(=O)O` stands over 25%. The same measure, in the same setting: the value for `NC(CC(=O)Nc1ccccc1)C(=O)O` (stereo unspecified) was over 25%. `O=C(O)C1C[C@@H](Cc2cccc(C(F)(F)F)c2)CN1` (single isomer, unassigned) came in with an inhibition in data set [3] of over 25%.

As to `O=C(O)[C@@H]1C[C@@H](Cc2ccc(Cl)cc2Cl)CN1`, in the data set with Mus musculus [14], the outcome was Active. On to `N#Cc1ccccc1C[C@H]1CNC(C(=O)O)C1` (single isomer, unassigned), for which the inhibition in data set [3] was over 25%.

Turning to `N[C@@H](CCC(=O)Nc1ccc([N+](=O)[O-])cc1)C(=O)O`, the inhibition result in the data set filed under Rattus norvegicus [15] is “Active”. Besides, in data set [2], the outcome was inactive. Moreover, the inhibition in data set [3] was over 25%. In the data set listed under Rattus norvegicus [4], the Activity was found to be 100 µM.

Compound `N[C@@H](CCC(=O)Nc1ccc2ccccc2c1)C(=O)O` gave an inhibition in data set [3] of over 25%.

Compound `N[C@@H](Cc1ccc(O)cc1)C(=O)O` registered an inhibition in data set [3] of over 25%. On to `O=C(O)[C@@H]1Cc2ccccc2CN1`, for which the inhibition in [3] was over 25%. `N#Cc1cccc(C[C@H]2CNC(C(=O)O)C2)c1` (single isomer, unassigned) yielded an inhibition in data set [3] of over 25%.

In the case of `O=C(O)C1C[C@@H](Cc2ccccc2Br)CN1` (single isomer, unassigned), in data set [3], the inhibition is over 25%. Still for that read-out and setting: the value for `NC(CC(=O)c1ccccc1)C(=O)O` (stereo unspecified) was over 25%; that for `O=C(O)[C@@H]1C[C@@H](Cc2ccc3ccccc3c2)CN1` was over 25%; that for `[N-]=[N+]=NCC[C@H](N)C(=O)O` was over 25%.

In data set [3], `O=C(O)C1C[C@@H](Cc2ccccc2F)CN1` (single isomer, unassigned) had an inhibition of over 25%.

The compound `N[C@H]1CCSC1=O` displayed an inhibition in data set [3] of over 25%. Still for that read-out and setting: under `N[C@H](C(=O)O)c1ccc(O)c(C(=O)O)c1` stands over 25%; under `O=C(O)[C@@H]1C[C@H](Cc2cccc(Cl)c2)CN1`, over 25%; under `N[C@@H](CCc1ccccc1)C(=O)O`, over 25%. `NC1(C(=O)O)CCCC1` gave an inhibition in data set [3] of over 25%.

With `C[C@@H](O)[C@H](N)C(=O)O`, the inhibition in data set [3] was over 25%. Still for that read-out and setting: under `COCC(N)C(=O)O` (racemic) stands over 25%.

In the case of `CSC[C@H](N)C(=O)O`, the inhibition in data set [3] is over 25%. Still for that read-out and setting: the value for `COc1ccc(C(N)C(=O)O)cc1` (stereo unspecified) was over 25%; that for `NC1(C(=O)O)CC1` was over 25%. Turning to `NC(C(=O)O)c1ccc(O)c(O)c1` (stereo unspecified), in data set [3], the inhibition is over 25%. Consider `N[C@@H](CSc1ccccc1)C(=O)O`, for which the result in data set [2] was inactive. Besides, the inhibition in data set [3] is over 25%. In [3], `Cc1ccc(C(N)C(=O)O)cc1Cl` (stereo unspecified) gave an inhibition of over 25%.

For `O=C(O)[C@@H]1C[C@@H](Cc2cccc(Cl)c2)CN1`, the inhibition in [3] is over 25%. The same measure, in the same setting: under `O=C(O)[C@@H]1CCN1` stands over 25%; under `O=C(O)c1cc2sccc2[nH]1`, over 25%. As for `NC(=O)CC[C@H](N)C(=O)O`, the outcome in data set [2] was inactive. In [3], this compound yielded an inhibition of over 25%. Further, in [16], the inhibition result was “Active”. In turn, `CC(=O)OC[C@H](N)C(=O)O` yielded an inhibition in data set [3] of over 25%. On the same count and under the same terms, under `O=C(O)[C@@H]1C[C@H](Oc2cccc(Cl)c2)CN1` stands over 25%; under `O=C(Nc1cccc2ccccc12)[C@@H]1C[C@@H](O)CN1`, over 25%.

What is called inhibition is the relative decrease from the control value, in per cent.

These data come from ChEMBL document CHEMBL3991947, “D-serine transporter inhibitors as pharmaceutical compositions for the treatment of central nervous system disorders” (2014).
